According to patent publication US12435061B2 (priority 2020, dated 2025):
Values after ≈ are worked out from the molar mass of the structure shown.

What was measured:
[1] = Aqueous solubility assay in Normal Ringer Solution; settings: Normal Ringer Solution; for solubility at 40 min: saline or isotonic, kinetic from dmso stock
Method: Following vortex and incubation for a sufficient time (e.g. 40 minutes at room temperature), solutions were filtered, quenched with acetonitrile, and analyzed by Liquid Chromotography. Solubility Limits were determined by comparison to a standard curve.

hTRPV3 [2] = biological target: T1, hTRPV3 (Homo sapiens (Human), UniProt Q8NET8); assay: Whole-cell patch clamp, hTRPV3 Phase 1 / Phase 2 currents; type: cell-based
T1 sequence (Q8NET8 whole entry): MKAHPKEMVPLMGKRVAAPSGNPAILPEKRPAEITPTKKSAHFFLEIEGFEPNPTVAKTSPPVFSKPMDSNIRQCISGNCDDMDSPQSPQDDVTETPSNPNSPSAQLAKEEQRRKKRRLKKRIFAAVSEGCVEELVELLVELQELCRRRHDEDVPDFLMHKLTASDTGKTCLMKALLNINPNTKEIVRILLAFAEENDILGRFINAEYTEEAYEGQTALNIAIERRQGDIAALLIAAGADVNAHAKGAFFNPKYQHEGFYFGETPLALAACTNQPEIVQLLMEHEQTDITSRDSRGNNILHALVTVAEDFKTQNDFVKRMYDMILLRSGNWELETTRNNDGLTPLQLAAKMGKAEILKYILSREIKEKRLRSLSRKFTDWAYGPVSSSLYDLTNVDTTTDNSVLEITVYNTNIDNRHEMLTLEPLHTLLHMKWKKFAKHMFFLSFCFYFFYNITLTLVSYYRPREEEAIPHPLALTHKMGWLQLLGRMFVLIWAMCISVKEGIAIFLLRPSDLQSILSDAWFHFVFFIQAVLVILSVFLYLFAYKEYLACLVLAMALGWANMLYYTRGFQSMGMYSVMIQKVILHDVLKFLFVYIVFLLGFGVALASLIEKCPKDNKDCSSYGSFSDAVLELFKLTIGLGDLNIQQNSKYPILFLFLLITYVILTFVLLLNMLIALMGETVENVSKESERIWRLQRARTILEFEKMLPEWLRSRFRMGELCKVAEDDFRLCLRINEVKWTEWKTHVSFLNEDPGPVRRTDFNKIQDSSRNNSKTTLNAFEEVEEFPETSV
Method in brief: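 Currents are activated by 20 μM 2-APB or by perfusate at 28 °C or warmer, in Ringer's solution, and quantified at ±80 mV.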

[3] = Metabolic Stability assay, rat liver microsomes; type: in vitro ADME; settings: for half-life at 1 μM: read-out: LM T1/2 (min) (rat); for LM T1/2 (min) (rat): 1 μM
Method in brief: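 Reactions in human or rat liver microsomes at 37 °C were started with an NADPH-regenerating system, using 1 μM compound initially. Samples were taken at 0, 7, 15, 30 and 60 min, quenched in ice-cold acetonitrile/MeOH/H2O, and quantified by HPLC/MS/MS.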

hTRPV3 [4] = biological target: T1, hTRPV3; assay: hTRPV3 HAMA IC50 assay (Hamamatsu FDSS6000 calcium flux, TRex-293 cells)
Method: IC50s were calculated using CBIS from ChemInnovation (San Diego).

[5] = Phase 1 current, inward, whole-cell patch clamp, read-out: hTRPV3 Patch P1 Inwd
[6] = Phase 1 current, read-out: hTRPV3 (nM) (Phase 1)
[7] = Phase 2 current, inward, whole-cell patch clamp, read-out: hTRPV3 Patch P2 Inwd
[8] = Phase 2 current, read-out: hTRPV3 (nM) (Phase 2)

Molecule	solubility at 40 min [1] [µM]	IC50 (hTRPV3 [2]; [5]) [nM]	IC50 (hTRPV3 [2]; [6]) [nM]	IC50 (hTRPV3 [2]; [7]) [nM]	IC50 (hTRPV3 [2]; [8]) [nM]	half-life at 1 μM [3] [min]	hTRPV3 HAMA IC50 (nM) (5 min) (hTRPV3 [4]; 5 min)	Solubility Ringer (nM) ([1]; room temperature)	IC50 (hTRPV3 [2]; hTRPV3 Patch P1 Inwd (nM)) [nM]	IC50 (hTRPV3 [2]; read-out: hTRPV3 (nM) (Phase 1))	LM T1/2 (min) (rat) [3]	hTRPV3 HAMA IC50 (nM) (30 min) (hTRPV3 [4]; 30 min)	Solubility Ringer ([1]; room temperature) [µM]	IC50 (hTRPV3 [4]; read-out: hTRPV3 HAMA IC50 (nM) (5 min), 5 min)
NC(=O)c1cc(Cl)ccc1N1CC[C@H](Oc2ccc(C(F)(F)F)cn2)C1 [Compound 1-31, (S)-5-chloro-2-(3-(5-(trifluoromethyl)pyridin-2-yloxy)pyrrolidin-1-yl)benzamide]	> 16.8	100 to 1000	~883	100 to 1000	546	34.3	no fit (5 min)	–	–	–	–	–	–	–
Cc1cccnc1O[C@H]1CCN(c2ccc(-c3ccccc3)cc2CO)C1 [Compound 1-131, (S)-(4-(3-(3-methylpyridin-2-yloxy)pyrrolidin-1-yl)biphenyl-3-yl)methanol]	~0.62 (≈ 0.223 µg/mL)	100 to 1000	148	–	–	23.5	no fit (5 min)	–	–	–	–	–	–	–
NC(=O)c1cc(C(=O)c2ccccc2)ccc1N1CC[C@@H](Oc2ccc(C(F)(F)F)cn2)C1 [Compound 1-154, (R)-5-benzoyl-2-(3-(5-(trifluoromethyl)pyridin-2-yloxy)pyrrolidin-1-yl)benzamide]	–	> 1000	3040	–	–	54.5	no fit (5 min)	–	–	–	–	–	–	–
NC(=O)c1cc(Oc2ccccc2Cl)ccc1N1CC[C@H](Oc2ncccc2Cl)C1 [Compound 1-181, (S)-5-(2-chlorophenoxy)-2-(3-(3-chloropyridin-2-yloxy)pyrrolidin-1-yl)benzamide]	–	100 to 1000	571	100 to 1000	834	8.96	no fit (5 min)	–	–	–	–	–	–	–
NC(=O)c1cc(Cc2ccccc2)ccc1N1CC[C@H](Oc2ccc(C(F)(F)F)cn2)C1 [Compound 1-140, (S)-5-benzyl-2-(3-(5-(trifluoromethyl)pyridin-2-yloxy)pyrrolidin-1-yl)benzamide]	–	–	–	–	–	27.7	no fit (5 min)	BLQ	100 to 1000	710	–	–	–	–
NC(=O)c1cc(C(O)c2ccccc2)ccc1N1CC[C@H](Oc2ncccc2Cl)C1 (stereo partly drawn) [Compound 1-137, 2-((S)-3-(3-chloropyridin-2-yloxy)pyrrolidin-1-yl)-5-(hydroxy(phenyl)methyl)benzamide]	> 17.7	> 1000	2980	–	–	8.72	no fit (5 min)	–	–	–	–	–	–	–
(S)-(2′-chloro-4-(3-(5-(trifluoromethyl)pyridin-2-yloxy)pyrrolidin-1-yl)biphenyl-3-yl)methanol [Compound 1-132]	–	10 to 100	32	–	–	–	no fit (5 min)	BLQ	–	–	54.1 (rat) min	–	–	–
CCc1ccccc1-c1ccc(CO)c(N2CC[C@H](Oc3ncccc3Cl)C2)c1 [Compound 1-229, (S)-(3-(3-(3-chloropyridin-2-yloxy)pyrrolidin-1-yl)-2′-ethylbiphenyl-4-yl)methanol]	0.16 (≈ 0.0654 µg/mL)	10 to 100	69.2	–	–	4.46	no fit (5 min) no fit (30 min)	–	–	–	–	no fit (5 min) no fit (30 min)	–	–
OCc1nc(Oc2ccccc2)ccc1N1CC[C@H](Oc2ccc(C(F)(F)F)cn2)C1 [Compound 1-139, (S)-(6-phenoxy-3-(3-(5-(trifluoromethyl)pyridin-2-yloxy)pyrrolidin-1-yl)pyridin-2-yl)methanol]	–	10 to 100	23.6	–	–	–	–	–	–	–	30.7 (rat) min	–	~0.3 (≈ 0.129 µg/mL)	5750
CCOc1ccccc1-c1ccc(N2CC[C@H](Oc3ccc(C(F)(F)F)cn3)C2)c(CO)c1 [Compound 1-162, (S)-(2′-ethoxy-4-(3-(5-(trifluoromethyl)pyridin-2-yloxy)pyrrolidin-1-yl)biphenyl-3-yl)methanol]	–	10 to 100	101	–	–	22.8	no fit (5 min)	–	–	–	–	–	–	–
OCCCc1cc(-c2ccccc2Cl)ccc1N1CC[C@H](Oc2ccc(C(F)(F)F)cn2)C1 [Compound 1-164]	–	100 to 1000	190	–	–	–	no fit (5 min)	BLQ	–	–	–	–	–	–
